Experimental data as given in patent publication US6054435A, “6-O-substituted macrolides having antibacterial activity” (priority 1999, dated 2000).
Values after ≈ are worked out from the molar mass of the structure shown.

Columns and labels:
Assay in all cases: in vitro antibacterial activity (MIC), agar dilution
Type in all cases: cell-based
[1] = tested on: Streptococcus pyogenes PIU 2548; conditions: organism code NN; BHI agar, 35-37° C., 20 to 24 hours; unit assumed
Method in brief: (§1)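 Plates of BHI agar were prepared with twelve aqueous dilutions of compound, then inoculated at 1:100 dilution, or 1:10 for slow growers like Streptococcus. After incubation they were inspected, and the lowest concentration yielding no growth, slight haze or sparse colonies was recorded as MIC.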

[2] = tested on: Streptococcus Pneumonia ATCC6303; conditions: organism code XX; BHI agar, 35-37° C., 20 to 24 hours; unit assumed
Method in brief: as §1

[3] = tested on: Streptococcus Pneumonia 5979; conditions: organism code ZZ; BHI agar, 35-37° C., 20 to 24 hours; unit assumed
Method in brief: as §1

[4] = tested on: Streptococcus bovis A-5169; conditions: organism code JJ; BHI agar, 35-37° C., 20 to 24 hours; unit assumed
Method in brief: as §1

[5] = tested on: Staphylococcus aureus CMX 553; conditions: organism code FF; BHI agar, 35-37° C., 20 to 24 hours; unit assumed
Method in brief: as §1

[6] = tested on: Staphylococcus epidermidis 3519; conditions: organism code HH; BHI agar, 35-37° C., 20 to 24 hours; unit assumed
Method in brief: as §1

[7] = tested on: Staphylococcus aureus A5177; conditions: organism code BB; BHI agar, 35-37° C., 20 to 24 hours; unit assumed
Method in brief: as §1

Escherichia coli JUHL = conditions: organism code QQ; BHI agar, 35-37° C., 20 to 24 hours; unit assumed
Method in brief: as §1

[8] = tested on: Streptococcus pyogenes EES61; conditions: organism code LL; BHI agar, 35-37° C., 20 to 24 hours; unit assumed
Method in brief: as §1

[9] = tested on: Nocardia Asteroides ATCC9970; conditions: organism code VV; BHI agar, 35-37° C., 20 to 24 hours; unit assumed
Method in brief: as §1

[10] = tested on: Mycobacterium smegmatis ATCC 114; conditions: organism code UU; BHI agar, 35-37° C., 20 to 24 hours; unit assumed
Method in brief: as §1

[11] = tested on: Haemophilis Influenzae DILL AMP R; conditions: organism code WW; BHI agar, 35-37° C., 20 to 24 hours; unit assumed
Method in brief: as §1

[12] = tested on: Micrococcus luteus ATCC 9341; conditions: organism code OO; BHI agar, 35-37° C., 20 to 24 hours; unit assumed
Method in brief: (§2)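 Agar dilution in BHI agar, twelve successive compound dilutions. Inoculum 1:100, or 1:10 for slow-growing strains (e.g. Streptococcus), replicator-spotted. Read by eye; MIC = lowest concentration with no growth, slight haze or sparsely isolated colonies relative to growth control.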

Escherichia coli SS = conditions: organism code RR; BHI agar, 35-37° C., 20 to 24 hours; unit assumed
Method in brief: as §1

[13] = tested on: Staphylococcus aureus NCTC10649M; conditions: organism code EE; BHI agar, 35-37° C., 20 to 24 hours; unit assumed
Method in brief: as §1

[14] = tested on: Staphylococcus aureus CMX 642A; conditions: organism code DD; BHI agar, 35-37° C., 20 to 24 hours; unit assumed
Method in brief: as §1

Escherichia coli DC-2 = conditions: organism code SS; BHI agar, 35-37° C., 20 to 24 hours; unit assumed
Method in brief: as §1

[15] = tested on: Enterococcus faecium ATCC 8043; conditions: organism code II; BHI agar, 35-37° C., 20 to 24 hours; unit assumed
Method in brief: as §1

[16] = tested on: Micrococcus luteus ATCC 4698; conditions: organism code PP; BHI agar, 35-37° C., 20 to 24 hours; unit assumed
Method in brief: as §2

Candida albicans CCH 442 = conditions: organism code TT; BHI agar, 35-37° C., 20 to 24 hours; unit assumed
Method in brief: as §1

[17] = tested on: Streptococcus pyogenes 930; conditions: organism code MM; BHI agar, 35-37° C., 20 to 24 hours; unit assumed
Method in brief: as §1

[18] = tested on: Staphylococcus aureus A-5278; conditions: organism code CC; BHI agar, 35-37° C., 20 to 24 hours; unit assumed
Method in brief: as §1

[19] = tested on: Staphylococcus aureus 1775; conditions: organism code GG; BHI agar, 35-37° C., 20 to 24 hours; unit assumed
Method in brief: as §1

[20] = tested on: Streptococcus agalactiae CMX 508; conditions: organism code KK; BHI agar, 35-37° C., 20 to 24 hours; unit assumed
Method in brief: as §1

[21] = tested on: Streptococcus Pneumonia 5649; conditions: organism code ZZA; BHI agar, 35-37° C., 20 to 24 hours; unit assumed
Method in brief: as §1

[22] = tested on: Staphylococcus aureus ATCC 6538P; conditions: organism code AA; BHI agar, 35-37° C., 20 to 24 hours; unit assumed
Method in brief: as §1

[23] = tested on: Streptococcus Pneumonia GYR 1171; conditions: organism code YY; BHI agar, 35-37° C., 20 to 24 hours; unit assumed
Method in brief: as §1

| SMILES | MIC [1] | MIC [2] | MIC [3] | MIC [4] | MIC [5] | MIC [6] | MIC [7] | MIC (Escherichia coli JUHL) | MIC [8] | MIC [9] | MIC [10] | MIC [11] | MIC [12] | MIC (Escherichia coli SS) | MIC [13] | MIC [14] | MIC (Escherichia coli DC-2) | MIC [15] | MIC [16] | MIC (Candida albicans CCH 442) | other results |
| --- | --- | --- | --- | --- | --- | --- | --- | --- | --- | --- | --- | --- | --- | --- | --- | --- | --- | --- | --- | --- | --- |
| CC[C@H]1OC(=O)[C@H](C)C(=O)[C@H](C)[C@@H](O[C@@H]2O[C@H](C)C[C@H](N(C)C)[C@H]2O)[C@](C)(OC/C=C/c2ccc(-c3ccccn3)s2)C[C@@H](C)C(=O)[C@H](C)[C@H]2NC(=O)O[C@@]21C [Example 75] | 0.1 µg/mL (≈ 0.125 µM) | ≤ 0.004 µg/mL | 1 µg/mL (≈ 1.25 µM) | 0.01 µg/mL (≈ 0.0125 µM) | 0.05 µg/mL (≈ 0.0627 µM) | 0.05 µg/mL (≈ 0.0627 µM) | 0.05 µg/mL (≈ 0.0627 µM) | 50 µg/mL (≈ 62.7 µM) | 0.02 µg/mL (≈ 0.0251 µM) | 0.02 µg/mL (≈ 0.0251 µM) | 1.56 µg/mL (≈ 1.95 µM) | 2 µg/mL (≈ 2.51 µM) | 0.02 µg/mL (≈ 0.0251 µM) | 0.39 µg/mL (≈ 0.489 µM) | 0.05 µg/mL (≈ 0.0627 µM) | 0.05 µg/mL (≈ 0.0627 µM) | 25 µg/mL (≈ 31.3 µM) | 0.05 µg/mL (≈ 0.0627 µM) | 0.1 µg/mL (≈ 0.125 µM) | > 100 µg/mL | MIC [17]: 12.5 µg/mL (≈ 15.7 µM); MIC [18]: > 100 µg/mL; MIC [19]: > 100 µg/mL; MIC [20]: 0.02 µg/mL (≈ 0.0251 µM); MIC [21]: 0.125 µg/mL (≈ 0.157 µM); MIC [22]: 0.05 µg/mL (≈ 0.0627 µM); MIC [23]: ≤ 0.004 µg/mL |
| CC[C@H]1OC(=O)[C@H](C)C(=O)[C@H](C)[C@@H](O[C@@H]2O[C@H](C)C[C@H](N(C)C)[C@H]2O)[C@](C)(OC/C=C/c2cncc(-c3cncs3)c2)C[C@@H](C)C(=O)[C@H](C)[C@H]2NC(=O)O[C@@]21C [Example 52] | 0.1 µg/mL (≈ 0.125 µM) | ≤ 0.004 µg/mL | > 128 µg/mL | 0.01 µg/mL (≈ 0.0125 µM) | 0.05 µg/mL (≈ 0.0626 µM) | 0.05 µg/mL (≈ 0.0626 µM) | 0.05 µg/mL (≈ 0.0626 µM) | 100 µg/mL (≈ 125 µM) | 0.02 µg/mL (≈ 0.025 µM) | 0.02 µg/mL (≈ 0.025 µM) | 1.56 µg/mL (≈ 1.95 µM) | 2 µg/mL (≈ 2.5 µM) | 0.01 µg/mL (≈ 0.0125 µM) | 0.39 µg/mL (≈ 0.488 µM) | 0.05 µg/mL (≈ 0.0626 µM) | 0.05 µg/mL (≈ 0.0626 µM) | 25 µg/mL (≈ 31.3 µM) | 0.01 µg/mL (≈ 0.0125 µM) | 0.2 µg/mL (≈ 0.25 µM) | > 100 µg/mL | MIC [17]: 100 µg/mL (≈ 125 µM); MIC [18]: > 100 µg/mL; MIC [19]: > 100 µg/mL; MIC [20]: ≤ 0.005 µg/mL; MIC [21]: 0.25 µg/mL (≈ 0.313 µM); MIC [22]: 0.05 µg/mL (≈ 0.0626 µM); MIC [23]: ≤ 0.004 µg/mL |
| CC[C@H]1OC(=O)[C@H](C)C(=O)[C@H](C)[C@@H](O[C@@H]2O[C@H](C)C[C@H](N(C)C)[C@H]2O)[C@](C)(OCC#Cc2ccc(-c3cncs3)s2)C[C@@H](C)C(=O)[C@H](C)[C@H]2NC(=O)O[C@@]21C [Example 29] | 0.05 µg/mL (≈ 0.0623 µM) | ≤ 0.004 µg/mL | 1 µg/mL (≈ 1.25 µM) | ≤ 0.005 µg/mL | 0.02 µg/mL (≈ 0.0249 µM) | 0.05 µg/mL (≈ 0.0623 µM) | 0.05 µg/mL (≈ 0.0623 µM) | 25 µg/mL (≈ 31.2 µM) | 0.01 µg/mL (≈ 0.0125 µM) | ≤ 0.005 µg/mL | 0.39 µg/mL (≈ 0.486 µM) | 2 µg/mL (≈ 2.49 µM) | ≤ 0.005 µg/mL | 0.1 µg/mL (≈ 0.125 µM) | 0.02 µg/mL (≈ 0.0249 µM) | 0.05 µg/mL (≈ 0.0623 µM) | 50 µg/mL (≈ 62.3 µM) | 0.01 µg/mL (≈ 0.0125 µM) | 0.05 µg/mL (≈ 0.0623 µM) | > 100 µg/mL | MIC [17]: 3.1 µg/mL (≈ 3.87 µM); MIC [18]: > 100 µg/mL; MIC [19]: > 100 µg/mL; MIC [20]: 0.01 µg/mL (≈ 0.0125 µM); MIC [21]: 0.25 µg/mL (≈ 0.312 µM); MIC [22]: 0.05 µg/mL (≈ 0.0623 µM); MIC [23]: ≤ 0.004 µg/mL |
